Data on two molecules can be found in ChEMBL document CHEMBL1136315, “Identification of a novel class of inhibitor of human and Escherichia coli thymidine phosphorylase by in silico screening” (Bioorg Med Chem Lett, 2003).

For test [1], the target named is T1, Thymidine phosphorylase (Homo sapiens) (UniProt P19971).
T1 sequence (whole entry): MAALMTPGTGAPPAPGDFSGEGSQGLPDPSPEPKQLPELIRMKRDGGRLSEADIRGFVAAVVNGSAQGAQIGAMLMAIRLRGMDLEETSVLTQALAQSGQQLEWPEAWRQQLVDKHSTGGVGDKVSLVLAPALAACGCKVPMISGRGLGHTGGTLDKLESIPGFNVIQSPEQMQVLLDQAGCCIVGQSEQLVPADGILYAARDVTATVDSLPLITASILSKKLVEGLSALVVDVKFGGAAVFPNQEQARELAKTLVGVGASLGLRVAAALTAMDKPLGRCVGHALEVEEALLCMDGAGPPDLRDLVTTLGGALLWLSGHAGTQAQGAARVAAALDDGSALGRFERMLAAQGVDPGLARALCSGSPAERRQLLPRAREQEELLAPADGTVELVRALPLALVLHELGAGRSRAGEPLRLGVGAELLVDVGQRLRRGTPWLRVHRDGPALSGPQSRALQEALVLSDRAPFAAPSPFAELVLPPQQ
In words: Inhibitory activity (134 uM) against Escherichia coli thymidine phosphorylase.

For test [2], the target named is Thymidine phosphorylase (Escherichia coli) (UniProt P07650). As to the kind of experiment: Inhibitory activity (105 uM) against Escherichia coli thymidine phosphorylase.

What is called inhibition is the drop in the measured response relative to a control, in per cent. Read a low inhibition as a weak effect.

Sequence of Thymidine phosphorylase (Escherichia coli) (P07650 whole entry, looked up): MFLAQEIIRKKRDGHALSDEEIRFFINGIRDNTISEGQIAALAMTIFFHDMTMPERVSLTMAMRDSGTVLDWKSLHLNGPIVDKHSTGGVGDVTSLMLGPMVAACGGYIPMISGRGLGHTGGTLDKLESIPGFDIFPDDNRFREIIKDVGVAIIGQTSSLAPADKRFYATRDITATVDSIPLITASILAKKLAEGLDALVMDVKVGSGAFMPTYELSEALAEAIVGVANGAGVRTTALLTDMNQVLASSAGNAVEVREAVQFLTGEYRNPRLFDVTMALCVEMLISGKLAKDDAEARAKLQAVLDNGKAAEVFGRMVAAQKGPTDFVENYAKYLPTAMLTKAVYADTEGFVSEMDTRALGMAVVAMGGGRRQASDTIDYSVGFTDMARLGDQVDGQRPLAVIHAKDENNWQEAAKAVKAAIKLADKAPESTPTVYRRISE

With `C=CCN/C(S)=N/C=C1C(=O)NC(=O)NC1=O`, in test [1], the inhibition is 60%.
The molecule `CCCCC1(/C=N/N=C(/N)S)NC(=O)NC1=O` (configuration not stated) had an inhibition in test [2] of 23%.
